Here are results for 3 compounds from patent US20080131511A1, “Pharmaceutical Composition for Treatment of Tear and Salivary Fluid Drying” (Astellas Pharma, Inc., priority 2004, published 2008).

The structures appear in SMILES notation.

Common to all, as to type: in vivo, mouse (male Balb/c)
Data set [1] deals with sweat gland. Kind of data set: Sweating (number of activated sweat glands on footpad) after subcutaneous bolus administration. The method, then: (§1) Male Balb/c mice were used in the test.
The compound A was dissolved in physiological saline to a concentration of 1, 3, 10, 30 or 100 mg/5 ml, and 5 ml/kg of the drug solution was administered under the dorsal skin. Secreted amounts of salivary and tear fluid were measured just before the administration of compound A and 10, 20, 30, 40 and 50 minutes after the administration. The sweating action was measured 10 minutes after the administration. Also, the growth acceleration action was measured 6 hours after the administration.
Pilocarpine was dissolved in physiological saline to a concentration of 0.03, 0.1, 0.3, 1, 3 or 10 mg/5 ml, or cevimeline to a concentration of 0.3, 1, 3, 10, 30 or 100 mg/5 ml, and 5 ml/kg of the drug solution was administered under the dorsal skin. Secreted amounts of salivary and tear fluid were measured just before the administration of pilocarpine or cevimeline and 10, 20, 30, 40 and 50 minutes after the administration. The sweating action was measured 10 minutes after the administration. Also, the growth acceleration action was measured 6 hours after the administration.
(§2) The footpad of right hind paw of a mouse anesthetized with diethyl ether was wiped with absorbent cotton, and then 20 μl of each of 5 mg/ml iodine-ethanol solution and 50 mg/ml starch-mineral oil suspension was applied thereto. The number of black spots on footpad was counted and used as the number of activated sweat glands. In the case of the subcutaneous bolus administration test, the number of activated sweat glands 10 minutes after the administration of compound A was measured. In the case of the subcutaneous continuous administration, area under the number of activated sweat glands-versus-time curve (AUC) was calculated.
(§3) All of the test results were expressed as fold increases of the reactions of the drug-administered group versus those of the vehicle-administered group, and comparison between the drug-administered groups and the vehicle-administered group was carried out using Dunnett's t-test. P<0.05 was considered significant. Results

The test system of data set [2] is sweat gland. Kind of data set: Sweating (activated sweat glands, AUC) during subcutaneous continuous administration (osmotic pump). The note with it: for sweating: AUC of activated sweat glands. The method, then:
as §1
The compound A was dissolved in physiological saline to a concentration of 0.625, 1.25, 2.5, 5.0, 10 or 20 mg/200 μl, and filled each pump (Alzet mini-osmotic pump 2001D, 8 μl/h, 1 day; DURECT Corporation) with about 200 μl portions It means, that is, each pump releases at a rate of 0.025, 0.05, 0.1, 0.2, 0.4 or 0.8 mg compound A/h, respectively. About 5 mm of dorsal epidermis of a mouse anesthetized with diethyl ether was incised, the osmotic pump already filled with the compound A was subcutaneously implanted, and then the skin was stitched. Secreted amounts of salivary and tear fluid and sweating were periodically measured from just before the implantation of pump until 32 hours after the administration. The ornithine decarboxylase activity was measured 10 hours after the implantation. […]
as §2, §3

Another data set concerns lacrimal gland. As to the kind of experiment: Tear fluid secretion during subcutaneous continuous administration (osmotic pump). The note with it: mice; for Tear fluid: AUC of secreted amount. The method, then: as §1
The compound A was dissolved in physiological saline to a concentration of 0.625, 1.25, 2.5, 5.0, 10 or 20 mg/200 μl, and filled each pump (Alzet mini-osmotic pump 2001D, 8 μl/h, 1 day; DURECT Corporation) with about 200 μl portions It means, that is, each pump releases at a rate of 0.025, 0.05, 0.1, 0.2, 0.4 or 0.8 mg compound A/h, respectively. About 5 mm of dorsal epidermis of a mouse anesthetized with diethyl ether was incised, the osmotic pump already filled with the compound A was subcutaneously implanted, and then the skin was stitched. Secreted amounts of salivary and tear fluid and sweating were periodically measured from just before the implantation of pump until 32 hours after the administration. The ornithine decarboxylase activity was measured 10 hours after the implantation.
Pilocarpine was dissolved in physiological saline to a concentration of 0.039, 0.078, 0.16 or 0.31 mg/200 μl, or cevimeline to a concentration of 0.16, 0.31, 0.63 or 1.3 mg/200 μl, and filled the osmotic pump (Alzet mini-osmotic pump 2001 D, 8 μl/h, 1 day; DURECT Corporation) with about 200 μl portions. It means, that is, each pump releases at a rate of 0.00156, 0.00312, 0.0064 or 0.0124 mg/h (pilocarpine) or 0.0064, 0.0124, 0.0252 or 0.05 mg/h (cevimeline). About 5 mm of dorsal epidermis of a mouse anesthetized with diethyl ether was incised, the osmotic pump already filled with pilocarpine or cevimeline was subcutaneously implanted, and then the skin was stitched. Secreted amounts of salivary and tear fluid and sweating were periodically measured from just before the implantation of pump until 32 hours after the administration. The ornithine decarboxylase activity was measured 10 hours after the implantation.
The mouth of a mouse was wiped with a cotton ball whose weight had been measured in advance, and the incremental weight was used as the amount of salivary fluid. Also at the same time, a thread for tear fluid measurement (Zone Quick; Menicon) used on the Schirmer test was inserted into the lower eyelid conjunctival sac, and the length of colored part was measured and used as the amount of tear fluid. From the measurement results, area under the secreted amount-versus-time curve (AUC) was calculated.
as §3

[3] abbreviates: male, Balb/c, mouse, in vivo, sc.
Where [4] appears, read: s.c. osmotic pump 0.16 mg (0.0064 mg/h).
The mark [5] stands for this setting: s.c. osmotic pump 0.31 mg (0.0124 mg/h).
Where [6] appears, read: mice, s.c. continuous administration.

As to `CC1OC2(CS1)CN1CCC2CC1` (stereo not shown) [cevimeline], the “dose at which statistically significant sweating was found” value in the data set on sweat gland [1] (mice, s.c. bolus) came to 10 mg/kg. For the same compound, the sweating in the data set with sweat gland [1] (mice, s.c. bolus 3 mg/kg, 10 minutes after administration (Table 4)) is 1.5 ± 0.29 fold increase vs. the vehicle group; in the data set on sweat gland [1] (mice, s.c. bolus 10 mg/kg, 10 minutes after administration (Table 4)) it was 2.5 ± 0.40 fold increase vs. the vehicle group; with sweat gland [1] (mice, s.c. bolus 30 mg/kg, 10 minutes after administration (Table 4)), 3.1 ± 0.57 fold increase vs. the vehicle group. Besides, the “dose at which sweating acceleration action was found” value in the data set on sweat gland [2] (setting [3]) is given as 1.25 mg. Also, in the data set on sweat gland [2] (setting [3]), the “sweating acceleration dose relative to dose for secretion acceleration” value was determined as 2 times. Also, the Tear fluid is listed as 1.3 ± 0.05 fold increase vs. the solvent group with lacrimal gland (setting [4]), 1.1 ± 0.09 fold increase vs. the solvent group with lacrimal gland (setting [5]), 1.4 ± 0.18 fold increase vs. the solvent group in the data set on lacrimal gland (s.c. osmotic pump 0.63 mg (0.0252 mg/h)) and 1.3 ± 0.04 fold increase vs. the solvent group with lacrimal gland (s.c. osmotic pump 1.25 (0.05 mg/h)).
On to `C=C1CC2(CCN(C)CC2)O[C@H]1C` [compound A, (−)-(S)-2,8-dimethyl-3-methylene-1-oxa-8-azaspiro[4.5]decane], for which, in the data set on sweat gland [1] (male, Balb/c, mouse, in vivo, 10 min), the “dose at which a side effect was found” value came to 30 mg/kg. Besides, in the data set with sweat gland [1] (mice, s.c. bolus), the “dose at which statistically significant sweating was found” value was determined as 30 mg/kg. The “sweating dose relative to dose accelerating secretion of salivary and tear fluid” value in the data set with sweat gland [1] (mice, s.c. bolus) came to 3 times. Besides, the sweating was 0.69 ± 0.19 fold increase vs. the vehicle group with sweat gland [1] (mice, s.c. bolus 3 mg/kg, 10 minutes after administration); 1.3 ± 0.20 fold increase vs. the vehicle group with sweat gland [1] (mice, s.c. bolus 10 mg/kg, 10 minutes after administration); 2.0 ± 0.19 fold increase vs. the vehicle group in the data set on sweat gland [1] (mice, s.c. bolus 30 mg/kg, 10 minutes after administration); 2.2 ± 0.17 fold increase vs. the vehicle group in the data set on sweat gland [1] (mice, s.c. bolus 100 mg/kg, 10 minutes after administration); 0.85 ± 0.06 fold increase vs. the vehicle group with sweat gland [2] (mice, s.c. osmotic pump 0.63 mg (0.025 mg/h)); 0.84 ± 0.06 fold increase vs. the vehicle group in the data set on sweat gland [2] (mice, s.c. osmotic pump 1.25 mg (0.05 mg/h)). Also, the sweating in the data set with sweat gland [2] (mice, s.c. osmotic pump 2.5 mg (0.1 mg/h)) is recorded as 0.89 ± 0.05 fold increase vs. the vehicle group; with sweat gland [2] (mice, s.c. osmotic pump 5 mg (0.2 mg/h)), 0.88 ± 0.05 fold increase vs. the vehicle group; in the data set with sweat gland [2] (mice, s.c. osmotic pump 10 mg (0.4 mg/h)), 0.90 ± 0.04 fold increase vs. the vehicle group; with sweat gland [2] (mice, s.c. osmotic pump 20 mg (0.8 mg/h)), 1.7 ± 0.07 fold increase vs. the vehicle group. In addition, the “dose at which a side effect was not found” value in the data set on sweat gland [1] (mouse, bolus administration) was 10 mg/kg. In the data set on sweat gland [2] (setting [6]), the “dose at which sweating acceleration action was found” value is 20 mg. In addition, the “sweating acceleration dose relative to dose for secretion acceleration” value in the data set on sweat gland [2] (setting [6]) was 8 times. For the same compound, the “dose up to which sweating acceleration action was not found” value in the data set on sweat gland [2] (mice, s.c. continuous administration, throughout the test period) is 10 mg. The “dose at which tear fluid secretion acceleration action reached maximum” value in the data set with lacrimal gland (s.c. continuous administration) amounted to 5 mg. Besides, the “dose showing statistically significant tear fluid secretion acceleration” value in the data set on lacrimal gland (s.c. continuous administration, cumulative quantity vs vehicle group) is on record as at least 2.5 mg. The Tear fluid in the data set on lacrimal gland (s.c. osmotic pump 0.63 mg (0.025 mg/h)) is 1.3 ± 0.11 fold increase vs. the vehicle group; in the data set on lacrimal gland (s.c. osmotic pump 1.25 mg (0.05 mg/h)), 1.3 ± 0.011 fold increase vs. the vehicle group; in the data set with lacrimal gland (s.c. osmotic pump 2.5 mg (0.1 mg/h)), 1.9 ± 0.10 fold increase vs. the vehicle group; with lacrimal gland (s.c. osmotic pump 5 mg (0.2 mg/h)) it was 2.3 ± 0.08 fold increase vs. the vehicle group; with lacrimal gland (s.c. osmotic pump 10 mg (0.4 mg/h)), 1.6 ± 0.08 fold increase vs. the vehicle group.
`CC[C@@H]1C(=O)OC[C@@H]1Cc1cncn1C` [pilocarpine]: the “dose at which statistically significant sweating was found” value in the data set with sweat gland [1] (mice, s.c. bolus) is 1 mg/kg. The sweating with sweat gland [1] (mice, s.c. bolus 0.3 mg/kg, 10 minutes after administration) is on record as 1.1 ± 0.16 fold increase vs. the vehicle group; in the data set with sweat gland [1] (mice, s.c. bolus 1 mg/kg, 10 minutes after administration), 3.1 ± 0.32 fold increase vs. the vehicle group; in the data set on sweat gland [1] (mice, s.c. bolus 3 mg/kg, 10 minutes after administration (Table 3)), 4.2 ± 0.29 fold increase vs. the vehicle group. The “dose at which sweating acceleration action was found” value with sweat gland [2] (setting [3]) is recorded as 0.31 mg. For the same compound, the Tear fluid in the data set with lacrimal gland (s.c. osmotic pump 0.039 mg (0.00156 mg/h)) is recorded as 0.81 ± 0.02 fold increase vs. vehicle group; in the data set on lacrimal gland (s.c. osmotic pump 0.078 mg (0.00312 mg/h)), 1.1 ± 0.13 fold increase vs. vehicle group; in the data set with lacrimal gland (setting [4]), 1.1 ± 0.14 fold increase vs. vehicle group; in the data set with lacrimal gland (setting [5]) it was 1.1 ± 0.12 fold increase vs. vehicle group.
